Assay results from the supplement of paper PMC10307832.

Columns and labels:
Experiment in all cases: relative viability (nuclei count vs DMSO), 5 days (fraction); higher = more cells survive
BMX-IN-1 + Crizotinib = compound: C=CC(=O)Nc1cc(-n2c(=O)ccc3cnc4ccc(-c5ccc(NS(C)(=O)=O)cc5)cc4c32)ccc1C [BMX-IN-1] + C[C@@H](Oc1cc(-c2cnn(C3CCNCC3)c2)cnc1N)c1c(Cl)ccc(F)c1Cl [Crizotinib] (partner 1 µM)
In short: (§1)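 Lung cancer cell lines were seeded in 1536-well plates and dosed by pin tool the next day, with either a single drug or a fixed anchor-drug dose combined with five library-drug doses (not always all listed) spaced in √10 steps. Five days later, one step fixed the cells and stained their nuclei (final 0.05% Triton X-100, 1% formaldehyde, 1 ug/ml Hoechst), and nuclei were counted on 4× images. Relative viability is the nuclei count in treated wells divided by the count in vehicle wells, and each value is the median of duplicate plates.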

PAC-1 + Palbociclib = compound: C=CCc1cccc(/C=N/NC(=O)CN2CCN(Cc3ccccc3)CC2)c1O [PAC-1] + CC(=O)c1c(C)c2cnc(Nc3ccc(N4CCNCC4)cn3)nc2n(C2CCCC2)c1=O [Palbociclib] (partner 0.5 µM)
In short: as §1

PAC-1 + Luminespib = compound: C=CCc1cccc(/C=N/NC(=O)CN2CCN(Cc3ccccc3)CC2)c1O [PAC-1] + CCNC(=O)c1noc(-c2cc(C(C)C)c(O)cc2O)c1-c1ccc(CN2CCOCC2)cc1 [Luminespib] (partner 0.01 µM)
In short: as §1

PAC-1 + Crizotinib = compound: C=CCc1cccc(/C=N/NC(=O)CN2CCN(Cc3ccccc3)CC2)c1O [PAC-1] + C[C@@H](Oc1cc(-c2cnn(C3CCNCC3)c2)cnc1N)c1c(Cl)ccc(F)c1Cl [Crizotinib] (partner 1 µM)
In short: as §1

PAC-1 + Pemetrexed = compound: C=CCc1cccc(/C=N/NC(=O)CN2CCN(Cc3ccccc3)CC2)c1O [PAC-1] + Nc1nc2[nH]cc(CCc3ccc(C(=O)N[C@@H](CCC(=O)O)C(=O)O)cc3)c2c(=O)[nH]1 [Pemetrexed] (partner 0.2 µM)
In short: as §1

| Cell Line | relative viability (BMX-IN-1 + Crizotinib; first compound 0.02 µM) | relative viability (BMX-IN-1 + Crizotinib; first compound 0.2 µM) | relative viability (BMX-IN-1 + Crizotinib; first compound 0.6325 µM) | relative viability (BMX-IN-1 + Crizotinib; first compound 2 µM) | relative viability (PAC-1 + Palbociclib; first compound 0.02 µM) | relative viability (PAC-1 + Palbociclib; first compound 0.06325 µM) | relative viability (PAC-1 + Palbociclib; first compound 0.2 µM) | relative viability (PAC-1 + Palbociclib; first compound 2 µM) | relative viability (PAC-1 + Luminespib; first compound 0.02 µM) | relative viability (PAC-1 + Luminespib; first compound 0.06325 µM) | relative viability (PAC-1 + Luminespib; first compound 0.2 µM) | relative viability (PAC-1 + Luminespib; first compound 2 µM) | relative viability (PAC-1 + Crizotinib; first compound 0.02 µM) | relative viability (PAC-1 + Crizotinib; first compound 0.06325 µM) | relative viability (PAC-1 + Crizotinib; first compound 0.2 µM) | relative viability (PAC-1 + Crizotinib; first compound 2 µM) | relative viability (PAC-1 + Pemetrexed; first compound 0.02 µM) | relative viability (PAC-1 + Pemetrexed; first compound 0.06325 µM) | relative viability (PAC-1 + Pemetrexed; first compound 0.2 µM) | relative viability (PAC-1 + Pemetrexed; first compound 2 µM) |
| --- | --- | --- | --- | --- | --- | --- | --- | --- | --- | --- | --- | --- | --- | --- | --- | --- | --- | --- | --- | --- |
| NCI-H358 | 0.498 | 0.611 | 0.538 | 0.512 | 0.12 | 0.133 | 0.116 | 0.115 | 0.411 | 0.404 | 0.32 | 0.265 | 0.552 | 0.531 | 0.751 | 0.453 | 0.165 | 0.161 | 0.187 | 0.183 |
| NCI-H322M | 1.02 | 1.05 | 0.982 | 0.887 | 0.434 | 0.42 | 0.519 | 0.466 | 0.812 | 0.832 | 0.848 | 0.775 | 0.792 | 0.839 | 0.877 | 0.854 | 0.591 | 0.65 | 0.618 | 0.603 |
| H3255 | 0.969 | 1.11 | 0.968 | 0.924 | 0.359 | 0.298 | 0.299 | 0.291 | 0.905 | 0.852 | 0.672 | 0.804 | 0.936 | 0.848 | 0.82 | 0.825 | 0.601 | 0.521 | 0.495 | 0.596 |
| COR-L23 | 0.942 | 0.641 | 0.864 | 0.767 | 0.33 | 0.243 | – | 0.277 | 0.569 | 0.71 | 0.629 | 0.625 | 0.646 | 0.607 | 0.599 | 0.624 | 0.206 | 0.192 | – | 0.206 |
| NCI-H2126 | 1.2 | 1.06 | 1.15 | 1.1 | 0.335 | 0.369 | 0.38 | 0.341 | 0.989 | 0.889 | 0.93 | 0.948 | 1.03 | 1.02 | 1.05 | 1 | 0.679 | 0.722 | 0.755 | 0.654 |
| NCI-H1993 | 0.912 | 0.873 | – | 0.835 | 0.647 | 0.656 | 0.757 | 0.646 | 0.951 | 0.861 | 0.399 | 0.789 | 0.811 | 0.831 | 0.626 | 0.743 | 0.636 | 0.565 | 0.59 | 0.589 |
| NCI-H1915 | 1.28 | 0.964 | 0.946 | 0.977 | 0.502 | 0.535 | 0.49 | 0.518 | 0.792 | 0.845 | 0.68 | 0.779 | 0.892 | 0.899 | 0.85 | 0.857 | 0.552 | 0.471 | 0.471 | 0.473 |
| NCI-H1734 | 0.797 | 0.807 | 0.794 | 0.703 | 0.307 | 0.328 | 0.297 | 0.355 | 0.169 | 0.178 | 0.18 | 0.189 | 0.698 | 0.627 | 0.659 | 0.766 | 0.379 | 0.427 | 0.418 | 0.419 |
| A-427 | 0.966 | 0.903 | 1.09 | 0.887 | 0.574 | 0.548 | 0.549 | 0.507 | 1.13 | 0.769 | 0.988 | 0.951 | 0.896 | 1.01 | 0.797 | 0.836 | 0.992 | 1.01 | 1.09 | 0.977 |
| NCI-H2170 | 1.5 | 1.27 | 1.1 | 1.38 | 0.417 | 0.39 | 0.376 | 0.343 | 0.64 | 0.607 | 0.542 | 0.606 | 1.15 | 1.25 | 1.14 | 1.03 | 0.259 | 0.252 | 0.257 | 0.278 |
| NCI-H1437 | 1.3 | 1.01 | 1.1 | 1.07 | 0.298 | 0.35 | 0.355 | 0.307 | 1.15 | 1.13 | 1.06 | 0.907 | 0.883 | 0.913 | 0.85 | 0.68 | 0.31 | 0.32 | 0.305 | 0.3 |
| PC-3 [JPC-3] | 1.34 | 1.03 | 1.03 | 0.99 | 0.567 | 0.502 | 0.535 | 0.514 | 0.774 | 0.644 | 0.53 | 0.664 | 1.03 | 1.07 | 0.944 | 0.972 | 1.09 | 1.32 | 1.25 | 1.09 |
| 201T | 1.03 | 1.05 | 1.09 | 1.05 | 0.347 | 0.346 | 0.37 | 0.363 | 1.03 | 1.05 | 1.09 | 1.04 | 1.07 | 1.09 | 1.02 | 1.05 | 0.316 | 0.303 | 0.314 | 0.334 |
| PC-14 | 0.909 | 1.07 | 0.964 | 0.987 | 0.586 | 0.504 | 0.487 | 0.606 | 0.127 | 0.172 | 0.151 | 0.252 | 0.946 | 0.931 | 0.855 | 0.945 | 0.13 | 0.139 | 0.126 | 0.179 |
| RERF-LC-KJ | 0.813 | 1.09 | 0.865 | 0.807 | 1.13 | 1.02 | 0.997 | 0.912 | 1.22 | 1.2 | 1.16 | 1.06 | 0.814 | 0.868 | 0.811 | 0.923 | 0.509 | 0.463 | 0.483 | 0.449 |
